Values of other authors as cited in EP0423943A2, “Use of collagenase inhibitors in the treatment of demyelinating diseases, in particular multiple sclerosis” (Beecham Group p.l.c., priority 1989, dated 1991).

Tested on: metalloprotease acting at neutral pH identified as a component of myelin membranes
Details: myelin membrane metalloprotease, literature statement

Row | Compound | inhibition of the enzyme
1 | c1cnc2c(c1)ccc1cccnc12 [1,10-phenanthroline] | inhibited
2 | CC(C)C[C@H](NP(=O)(O)O[C@@H]1O[C@@H](C)[C@H](O)[C@@H](O)[C@H]1O)C(=O)N[C@@H](Cc1c[nH]c2ccccc12)C(=O)O [phosphoramidon] | not
